Measurements as given in patent US20240398814A1, “KRAS INHIBITOR AND HDAC INHIBITOR COMBINATION FOR THE TREATMENT OF CANCER” (Northwestern University, priority 2023, published 2024).

How the values were obtained:
KL NSCLC GEMM = test: In vivo entinostat and trametinib treatment, 42 days, tumor burden; design: species or system mouse; conditions: endpoint after 42 days; entinostat 10 mg/kg, trametinib 1 mg/kg, oral gavage
Experimental: Bioluminescent imaging was performed biweekly using an IVIS Spectrum (Caliper Life Sciences) using Living Image software (Perkin Elmer). Mice were injected intraperitoneally with 150 mg/kg D-luciferin (Caliper Life Sciences), anesthetized with isoflurane and imaged both ventrally and dorsally 10 minutes post luciferin injection. The total lung photon flux for each animal is calculated by the combination of ventral and dorsal photon flux calculated within a region of interest (ROI) encompassing the thorax.
Mice were intratracheally intubated with Lentivirus expressing Cre recombinase to initiate tumorigenesis and imaged […] starting 4 weeks post-Cre. Treatment was initiated at day 34 post-Cre (FIG. 5). In vivo treatment doses were selected based on publications (76-79). […]
Total lung tumor burden was quantitated from H&E sections using Inform v2.1 image analysis software (Cambridge Research and Instrumentation) in a non-biased manner. […] The quantitation data from this analysis was then used to calculate the percentage of tumor area as normalized to total lung area (tumor area+normal lung area).
Quantitation of each individual tumor was measured from H&E sections using morphometric analysis in Panoramic viewer software (Perkin Elmer), which calculates the size of each identified tumor by area in squared microns. […]

KL lung tumors = test: 6-week in vivo entinostat and trametinib treatment, flow cytometry immune profiling; design: species or system mouse; conditions: 6 weeks; percentage of total CD45+ cells
Experimental: The 6-week duration study was carried out according to the same experimental design except for the following: To ensure an extended treatment duration, treatment was initiated after tumor burden was detected by BLI in >30% of mice in the study. Entinostat was administered at a dose of 10 mg/kg to assess systemic drug impact at a dose corresponding to potent tumor growth control. Because mice were gavaged twice daily for an extended duration, an additional drug holiday was built into the dosing schedule starting after 3 weeks of treatment; mice were administered drug using the following schedule: 4 days on, 1 day off, 1 day on, and 1 day off (imaging day).
Tumor digestion and cell isolation: Lungs were removed from the chest, washed with PBS, dried on paper towels and then tumor nodules were excised from adjacent tissue and both adjacent tissue and nodules were weighed. Nodules or adjacent tissue was minced into small pieces and suspended in digestion media consisting of RPMI 1640 with 2% FBS, 0.5 ug/mL of DNase I and 1 unit/mL collagenase Type I (Sigma-Aldrich Cat #0000137295) and placed in an incubator at 37° C. for 45 minutes, shaking once during digestion. […]

`Nc1ccccc1NC(=O)c1ccc(CNC(=O)OCc2cccnc2)cc1` [entinostat] was tested, and the “tumor burden quantitated from H&E-stained sections (tumor area as percentage of total lung area)” value (KL NSCLC GEMM) was “neither entinostat nor trametinib alone impacted tumor burden” and the “gMDSCs in lung tumors” value (KL lung tumors) was “No changes were observed”.
